Source: US11697648B2, “Fused pyrimidine pyridinone compounds as JAK inhibitors” (THERAVANCE BIOPHARMA R&D IP, LLC, priority 2019, dated 2023)

Key:
JAK1 = JAK1 (Homo sapiens (Human), UniProt P23458); test: Biochemical JAK1 kinase assay (LanthaScreen)
Outline: (§1)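 GST-JAK + GFP-STAT1 peptide, HEPES pH 7.5/MgCl2/EGTA/Brij-35 buffer; cpd preincubation 1 h RT; ATP start, 1 h RT; stop with 10 mM EDTA + 2 nM Tb-anti-pSTAT1; TR-FRET 520/495. 4-parameter IC50 → pKi (Cheng-Prusoff).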

JAK2 = JAK2 (Homo sapiens (Human), UniProt O60674); test: Biochemical JAK2 kinase assay (LanthaScreen)
Chain of JAK2 (O60674 whole entry): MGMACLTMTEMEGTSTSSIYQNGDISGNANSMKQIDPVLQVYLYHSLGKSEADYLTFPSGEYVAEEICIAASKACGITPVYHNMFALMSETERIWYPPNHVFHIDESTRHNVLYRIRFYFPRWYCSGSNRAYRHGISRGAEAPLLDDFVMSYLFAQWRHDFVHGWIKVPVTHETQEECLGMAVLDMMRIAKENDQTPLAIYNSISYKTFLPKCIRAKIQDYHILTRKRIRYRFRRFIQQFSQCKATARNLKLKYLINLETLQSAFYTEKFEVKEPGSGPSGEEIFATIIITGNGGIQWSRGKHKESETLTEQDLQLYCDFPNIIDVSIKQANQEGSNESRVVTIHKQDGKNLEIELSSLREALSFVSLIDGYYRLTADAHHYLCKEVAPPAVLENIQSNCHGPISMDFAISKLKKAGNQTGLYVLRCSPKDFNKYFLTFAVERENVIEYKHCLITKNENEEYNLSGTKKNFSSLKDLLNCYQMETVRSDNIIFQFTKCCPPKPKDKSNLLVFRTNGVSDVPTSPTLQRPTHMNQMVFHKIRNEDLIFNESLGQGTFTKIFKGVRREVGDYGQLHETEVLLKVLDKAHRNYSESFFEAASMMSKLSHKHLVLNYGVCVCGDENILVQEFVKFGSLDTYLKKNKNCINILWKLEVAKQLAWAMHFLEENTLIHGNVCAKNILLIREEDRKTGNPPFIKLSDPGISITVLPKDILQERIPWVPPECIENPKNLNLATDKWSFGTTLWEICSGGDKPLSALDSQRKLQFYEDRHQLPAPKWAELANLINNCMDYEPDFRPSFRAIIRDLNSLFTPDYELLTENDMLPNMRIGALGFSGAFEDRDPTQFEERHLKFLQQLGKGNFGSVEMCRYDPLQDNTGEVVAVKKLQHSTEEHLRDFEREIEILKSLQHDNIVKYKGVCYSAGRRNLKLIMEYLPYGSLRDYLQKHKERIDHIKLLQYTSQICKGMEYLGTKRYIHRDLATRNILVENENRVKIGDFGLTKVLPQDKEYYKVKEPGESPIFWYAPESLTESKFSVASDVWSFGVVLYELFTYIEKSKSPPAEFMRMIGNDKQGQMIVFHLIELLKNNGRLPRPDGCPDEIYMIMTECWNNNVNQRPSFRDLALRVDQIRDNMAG
Outline: as §1

JAK3 = JAK3 (Homo sapiens (Human), UniProt P52333); test: Biochemical JAK3 kinase assay (LanthaScreen)
Chain of JAK3 (P52333 whole entry): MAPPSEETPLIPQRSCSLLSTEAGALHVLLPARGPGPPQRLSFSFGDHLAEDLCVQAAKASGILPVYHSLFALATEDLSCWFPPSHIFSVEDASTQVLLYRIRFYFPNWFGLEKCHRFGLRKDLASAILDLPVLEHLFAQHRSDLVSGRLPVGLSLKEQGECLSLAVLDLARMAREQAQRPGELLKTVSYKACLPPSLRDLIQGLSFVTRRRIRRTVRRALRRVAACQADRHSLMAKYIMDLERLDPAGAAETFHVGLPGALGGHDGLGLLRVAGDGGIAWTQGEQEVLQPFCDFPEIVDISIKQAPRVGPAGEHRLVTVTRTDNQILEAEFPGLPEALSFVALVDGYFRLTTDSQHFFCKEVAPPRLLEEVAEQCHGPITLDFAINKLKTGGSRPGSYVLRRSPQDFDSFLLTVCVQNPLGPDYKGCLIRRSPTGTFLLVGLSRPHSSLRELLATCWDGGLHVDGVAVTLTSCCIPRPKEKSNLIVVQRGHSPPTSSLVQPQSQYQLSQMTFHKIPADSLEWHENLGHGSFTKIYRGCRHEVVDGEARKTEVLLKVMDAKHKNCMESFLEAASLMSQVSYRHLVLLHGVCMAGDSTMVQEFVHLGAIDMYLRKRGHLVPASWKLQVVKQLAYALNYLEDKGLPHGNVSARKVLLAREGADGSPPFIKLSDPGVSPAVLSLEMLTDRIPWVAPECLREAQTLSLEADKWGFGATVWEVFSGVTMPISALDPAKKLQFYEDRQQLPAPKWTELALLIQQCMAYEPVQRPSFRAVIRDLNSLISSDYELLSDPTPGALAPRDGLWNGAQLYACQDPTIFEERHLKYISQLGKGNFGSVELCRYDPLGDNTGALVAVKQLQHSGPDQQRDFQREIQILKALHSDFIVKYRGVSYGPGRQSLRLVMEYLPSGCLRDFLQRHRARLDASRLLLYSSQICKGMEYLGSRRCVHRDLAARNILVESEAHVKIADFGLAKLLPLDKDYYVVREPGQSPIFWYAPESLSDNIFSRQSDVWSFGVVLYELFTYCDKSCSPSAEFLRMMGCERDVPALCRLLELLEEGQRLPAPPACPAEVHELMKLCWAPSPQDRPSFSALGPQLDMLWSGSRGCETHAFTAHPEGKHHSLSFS
Outline: as §1

Tyk2 = Tyk2 (Homo sapiens (Human), UniProt P29597); test: Biochemical Tyk2 kinase assay (LanthaScreen)
Chain of Tyk2 (P29597 whole entry): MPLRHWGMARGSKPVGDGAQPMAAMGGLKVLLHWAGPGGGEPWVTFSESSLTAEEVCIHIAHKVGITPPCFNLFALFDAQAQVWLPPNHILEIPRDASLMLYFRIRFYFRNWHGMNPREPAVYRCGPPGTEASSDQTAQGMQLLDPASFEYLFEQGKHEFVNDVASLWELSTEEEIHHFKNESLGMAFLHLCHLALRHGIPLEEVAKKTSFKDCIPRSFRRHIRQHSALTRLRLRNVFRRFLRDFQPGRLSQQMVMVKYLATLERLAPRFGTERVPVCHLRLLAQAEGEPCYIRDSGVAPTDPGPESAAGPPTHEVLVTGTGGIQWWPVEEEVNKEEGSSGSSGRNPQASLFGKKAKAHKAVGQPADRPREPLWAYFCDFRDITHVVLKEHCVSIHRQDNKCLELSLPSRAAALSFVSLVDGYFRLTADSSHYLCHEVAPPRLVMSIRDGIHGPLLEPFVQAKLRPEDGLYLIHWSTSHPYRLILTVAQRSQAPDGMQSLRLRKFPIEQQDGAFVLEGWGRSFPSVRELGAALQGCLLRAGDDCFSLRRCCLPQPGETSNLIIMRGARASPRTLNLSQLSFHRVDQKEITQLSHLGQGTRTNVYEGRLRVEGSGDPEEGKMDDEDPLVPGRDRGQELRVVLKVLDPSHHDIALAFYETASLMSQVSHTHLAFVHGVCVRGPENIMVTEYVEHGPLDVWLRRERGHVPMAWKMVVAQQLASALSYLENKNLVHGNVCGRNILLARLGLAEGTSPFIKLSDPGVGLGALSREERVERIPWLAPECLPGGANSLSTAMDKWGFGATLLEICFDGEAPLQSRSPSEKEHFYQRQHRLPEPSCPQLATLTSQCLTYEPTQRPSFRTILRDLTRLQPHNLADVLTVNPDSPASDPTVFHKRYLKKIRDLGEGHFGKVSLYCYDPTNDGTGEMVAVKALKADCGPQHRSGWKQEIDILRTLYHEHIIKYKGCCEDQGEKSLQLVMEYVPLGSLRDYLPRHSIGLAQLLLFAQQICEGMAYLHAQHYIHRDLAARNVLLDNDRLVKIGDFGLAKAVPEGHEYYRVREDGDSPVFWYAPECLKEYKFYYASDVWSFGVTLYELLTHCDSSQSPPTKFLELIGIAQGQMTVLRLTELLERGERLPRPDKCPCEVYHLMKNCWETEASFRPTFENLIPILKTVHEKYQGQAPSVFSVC
Outline: as §1

[1] = tested on: IL-2 stimulated STAT5 phosphorylation in Tall-1 human T cell line (JAK3); test: Cellular JAK3 potency assay: inhibition of IL-2 stimulated pSTAT5 in Tall-1 T cells; type: cell-based; settings: IL-2 stimulated pSTAT5, Tall-1 T cells
Outline: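 Tall-1 cells, 45,000 per well, preincubated 1 hour with compound at 37 °C, then stimulated 30 minutes with IL-2 at 300 ng/ml final. pSTAT5 (Tyr694/699) in lysates quantified by AlphaLISA SureFire Ultra. pIC50 derived from inhibition curves, given as mean with SD.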

Caco-2 cell monolayers = test: Caco-2 permeation assay; type: in vitro ADME; settings: 5 μM, A-B direction, with Verapamil (25 μM)
Outline: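 Compounds tested at 5 μM in duplicate across Caco-2 monolayers, apical-to-basolateral, with 25 μM verapamil to block P-gp, at 37° C., 5% CO2. Apical and basal samples taken at 0 and 120 min, analysed by LC-MS/MS; Papp (cm/sec) calculated as dQ/(dt×Area×concentration).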

[2] = Colon and plasma mouse pharmacokinetics; type: in vivo; settings: mouse, colon tissue / plasma; male Balb/c mice, 10 mg/kg PO; ratio of the colon AUC to the plasma AUC
Outline: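 Male Balb/c mice given 10 mg/kg PO in 1% HPMC + 0.1% Tween-80; plasma, colon tissue and colon contents taken at 0.5, 2 and 6 h, quantified by LC/MS/MS. Non-compartmental analysis on means of 2 animals/time point; colon:plasma ratio taken as colon AUC over plasma AUC.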

Chain of JAK1 (P23458 whole entry): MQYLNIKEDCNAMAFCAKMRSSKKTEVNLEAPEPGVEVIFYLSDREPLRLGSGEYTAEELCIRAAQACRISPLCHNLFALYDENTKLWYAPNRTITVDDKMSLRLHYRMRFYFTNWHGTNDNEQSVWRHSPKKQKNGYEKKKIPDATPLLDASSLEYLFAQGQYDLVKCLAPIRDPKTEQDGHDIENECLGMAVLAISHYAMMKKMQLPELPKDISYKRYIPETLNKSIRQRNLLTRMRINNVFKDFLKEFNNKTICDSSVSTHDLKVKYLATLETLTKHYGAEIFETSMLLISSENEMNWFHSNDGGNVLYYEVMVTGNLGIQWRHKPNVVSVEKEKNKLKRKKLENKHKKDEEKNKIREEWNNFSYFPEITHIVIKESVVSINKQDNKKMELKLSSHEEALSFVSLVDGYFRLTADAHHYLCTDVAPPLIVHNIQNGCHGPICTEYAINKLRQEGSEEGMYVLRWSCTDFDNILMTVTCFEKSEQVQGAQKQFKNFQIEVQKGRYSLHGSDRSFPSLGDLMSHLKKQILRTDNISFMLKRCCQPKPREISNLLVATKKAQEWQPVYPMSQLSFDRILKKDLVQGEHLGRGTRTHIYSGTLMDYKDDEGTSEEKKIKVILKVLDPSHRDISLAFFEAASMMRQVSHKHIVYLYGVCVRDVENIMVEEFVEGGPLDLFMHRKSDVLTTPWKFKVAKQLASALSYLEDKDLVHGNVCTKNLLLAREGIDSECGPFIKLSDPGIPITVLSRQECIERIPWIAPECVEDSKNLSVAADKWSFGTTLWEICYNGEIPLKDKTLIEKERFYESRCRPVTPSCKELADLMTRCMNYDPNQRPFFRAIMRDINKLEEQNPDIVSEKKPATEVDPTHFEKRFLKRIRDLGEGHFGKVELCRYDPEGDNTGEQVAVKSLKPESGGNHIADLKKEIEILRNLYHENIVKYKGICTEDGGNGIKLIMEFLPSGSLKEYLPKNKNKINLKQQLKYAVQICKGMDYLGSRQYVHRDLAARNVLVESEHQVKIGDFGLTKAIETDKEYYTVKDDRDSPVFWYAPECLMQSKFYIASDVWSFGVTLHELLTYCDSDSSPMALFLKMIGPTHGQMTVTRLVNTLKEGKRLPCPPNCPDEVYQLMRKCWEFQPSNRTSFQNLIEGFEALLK

Structure (SMILES): C=CC(=O)N1CCN(CCn2c(=O)ccc3cnc(Nc4ccc(N5CCN(C(=O)COC)CC5)cc4)nc32)[C@@H](C)C1 [Example 175]
- JAK 1 (pKi) (JAK1): E (E represents a pKi value of 7 or below (Ki of 100 nM or above))
- JAK 2 (pKi) (JAK2): E (E represents a pKi value of 7 or below (Ki of 100 nM or above))
- JAK 3 (pKi) (JAK3): B (B represents pKi value between 9 and 10 (Ki between 1 nM and 0.1 nM))
- JAK3 (pKi)-JAK1 (pKi) (JAK3; selectivity JAK3 over JAK1, difference of pKi): A (A represents a value of 3 or above)
- Tyk 2 (pKi) (Tyk2): E (E represents a pKi value of 7 or below (Ki of 100 nM or above))
- Tall-1 (pIC50) [1]: B (B represents a pC50 value between 6.7 (included) and 7.5 (IC50 between 200 nM and 32 nM))
- Caco Kp (Caco-2 cell monolayers): A (A represents a value below 5×10^−6 cm/sec)
- Kp [2]: > 100
